Tests used:
Type in all cases: in vivo, C57BL/6 mice
[1] = system: inflammatory cytokines (IL-6, IL-17F, and IL-22); test: Expression levels of inflammatory cytokines in dorsal skin by quantitative PCR (Example 1); settings: mRNA, Day 5, 5 mg/kg/day i.v. for three days, vs control group
Text: (§1) In order to induce psoriasis using imiquimod, a cream containing 5% imiquimod (Beselna Cream 5%, manufactured by Mochida Pharmaceutical Co., Ltd.) was used. Imiquimod is represented as IMQ in the drawings corresponding to the Examples of this application. A peptide consisting of amino acid residues 1-44 of the human-derived HMGB1 protein (SEQ ID NO: 1) was chemically synthesized by a solid-phase method. Hereinafter, the HMGB1 fragment peptide is referred to as the HMGB1 peptide (1-44) and is expressed as an abbreviation “1-44” in the drawings corresponding to the Examples.
(§2) C57BL/6 mice (7-week-old, female, body weight about 20 g) were prepared, and the hair on the back was removed. In order to induce psoriasis, the cream containing 5% imiquimod was applied to the dorsal skin of the mice at a dose of 1.25 g/animal/day (62.5 mg/animal/day as imiquimod) once a day for four days. In the following, the day when imiquimod was first applied is represented as “the 1st day of the start of imiquimod application (Day 1)”, and the next day onward is represented as “the Xth day from the start of imiquimod application (Day X)”. That is, the last day that imiquimod was applied was the 4th day from the start of imiquimod application (Day 4), and no application was performed on the 5th day from the start of imiquimod application (Day 5).
The psoriasis model mice produced as described above were divided into the HMGB1 peptide (1-44) administration group (n=3) and the control group (n=3). […]
(§3) On the 5th day from the start of imiquimod application (Day 5), the dorsal skin of the mice was collected, mRNA was extracted from the skin, and the expression levels of the inflammatory cytokines (IL-6, IL-17F, and IL-22), which are known to be involved in the pathogenesis of psoriasis, were analyzed by quantitative PCR.

psoriasis model mice [2] = test: PASI score in imiquimod-induced psoriasis model mice (Example 1)
Text: as §1, §2
The psoriasis model mice produced as described above were divided into the HMGB1 peptide (1-44) administration group (n=3) and the control group (n=3). The test substance was administered by injecting an HMGB1 peptide (1-44) solution, which has been adjusted to a concentration of 1 μg/μl with saline as the vehicle, into the vein at a dose of 100 μl/day (5 mg/kg/day as the peptide dose) for three days from the 1st day of the start of imiquimod application (Day 1). […]
The degree of the symptoms of psoriasis on the dorsal skin of the mice was evaluated by the PASI score for five days from the 1st day of the start of imiquimod application. The PASI score was calculated by quantifying the degree of each of (a) erythema, (b) scaling (desquamation), and (c) thickening (infiltration) of skin using five stages, [no symptoms: 0 points, mild: 1 point, moderate: 2 points, severe: 3 points, and extremely severe: 4 points], and summing up the values of (a), (b), and (c) (minimum 0 points-maximum 12 points).
(a) The erythema score was determined by using the photographs of the back of mice shown in FIG. 1 as a criterion for each score and visually comparing them with the condition of the back of the mice to be evaluated. (b) The scaling score was determined by using the photographs of the back of mice shown in FIG. 2 as a criterion for each score and visually comparing them with the condition of the back of the mice to be evaluated. (c) The thickening score was determined as follows: Two measurement sites were determined on the back of the mice, the skin was pinched and its thickness was measured with a caliper, and the average value from the two sites was recorded daily as the skin thickness (mm). Quantification was carried out by giving 0 points when the value of skin thickness of each day relative to the skin thickness on the 1st day of the start of imiquimod application (before application) was less than 1.1, 1 point when the value was 1.1 or more to less than 1.3, 2 points when the value was 1.3 or more to less than 1.5, 3 points when the value was 1.5 or more to less than 1.7, and 4 points when the value was 1.7 or more.

psoriasis model mice [3] = test: PASI score in imiquimod-induced psoriasis model mice (Example 2); settings: 5 mg/kg/day i.v. for three days, up to Day 4, vs control group (saline), n=6
Experimental: (§4) The drugs were prepared and the psoriasis model mice were produced in the same way as Example 1. The peptides were administered in the same way as Example 1 except that the number of mice was changed to six in both the HMGB1 peptide (1-44) administration group and the control group.
The degree of the symptoms of psoriasis on the dorsal skin of the mice was evaluated by the PASI score for four days from the 1st day of the start of imiquimod application. The PASI score was calculated in the same manner as Example 1.

[4] = system: inflammatory cytokines (IL-1β, IL-6, IL-17A, IL-17F, and IL-22); test: Expression levels of inflammatory cytokines in dorsal skin by quantitative PCR (Example 2); settings: mRNA, Day 5, 5 mg/kg/day i.v. for three days, vs control group
Experimental: as §4
as §3, with “application,” for “application (Day 5),”, “(IL-1β, IL-6, IL-17A,” for “(IL-6,”

[5] = 5 mg/kg/day i.v. for three days, up to Day 5, vs control group

HMGB1 peptide (1-44): peptide consisting of amino acid residues 1-44 of the human-derived HMGB1 protein (SEQ ID NO: 1), chemically synthesized by a solid-phase method (MGKGDPKKPRGKMSSYAFFVQTCREEHKKKHPDASVNFSEFSKK)
expression level of IL-6 in the skin [1]: lower than those in the control group | expression level of IL-17F in the skin [1]: lower than those in the control group | expression level of IL-22 in the skin [1]: lower than those in the control group | PASI score (psoriasis model mice [2]; 5 mg/kg/day i.v. for three days from Day 1, up to Day 5, vs control group (saline), n=3): lower than those in the control group | PASI score on the 5th day from the start of imiquimod application (psoriasis model mice [2]; 5 mg/kg/day i.v. for three days, Day 5, vs control group (saline), p<0.05, 5 mg/kg/day): significantly lower than that in the control group | erythema score (psoriasis model mice [2]; [5]): lower than those in the control group | scaling score (psoriasis model mice [2]; [5]): lower than those in the control group | thickening score (psoriasis model mice [2]; [5]): lower than those in the control group | PASI score (psoriasis model mice [3]): lower than that in the control group | expression level of IL-1β in the skin [4]: lower than those in the control group | expression level of IL-6 in the skin [4]: lower than those in the control group | expression level of IL-17A in the skin [4]: lower than those in the control group | expression level of IL-17F in the skin [4]: lower than those in the control group | expression level of IL-22 in the skin [4]: lower than those in the control group
